In test [1] the test system is Hedgehog pathway activation (GLi-luciferase reporter) in Shh Light II reporter cells. The test is described as follows: Hedgehog pathway activation on Shh Light II reporter cells measured by luciferase activity. The format is cell-based. The settings on record: Mus musculus, Shh Light II. An outline of the steps: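 Shh Light II reporter cells carrying a hedgehog-responsive GLi-luciferase reporter were stimulated either with 500 nM SAG, a direct Smoothened agonist, or with conditioned media containing human Sonic Hedgehog (hShh). Test compounds were evaluated for blocking this pathway activation, quantified by luciferase activity. Cell viability was monitored in parallel with the Celltiter-Blue® assay.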

In test [2] the test system is Hedgehog pathway activation on 10T1/2/Smo#3 cells (C3H10T1/2 cells transfected with human Smoothened receptor). Nature of the test: Hedgehog pathway activation on 10T1/2/Smo#3 cells measured by ALP activity. The test is classed as cell-based. The settings on record: Mus musculus, C3H 10T1/2, 10T1/2/Smo#3 cells. The method, boiled down: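 Inhibition of alkaline phosphatase induction, read fluorometrically from 4-methylumbelliferyl phosphate conversion, gave IC50 values; CellTiter-Blue tracked viability in parallel. Cells were the human Smo-transfected 10T1/2/Smo#3 pool, stimulated by 10-20% hShh conditioned medium or the Smo agonist SAG (500 nM).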

Setting [3] is: SAG activation (500 nM SAG), read-out: Shh Light II luciferase activity (SAG activation).
Where [4] appears, read: hShh activation, read-out: Shh (IC50, inhibition of Hedgehog pathway activation).
[5] abbreviates: hShh activation, read-out: Shh Light II luciferase activity (hShh activation).
Where [6] appears, read: hShh activation, ALP activity, read-out: 10T1/2/Smo#3 ALP activity (hShh Activation).
The mark [7] stands for this setting: measured by ALP activity, read-out: ALP (IC50, inhibition of Hedgehog pathway activation).

The structures appear in SMILES notation. Like-named read-outs stand apart in the source and are kept apart here. Some results are limits rather than exact numbers.

With `Cc1ccc(-c2cn3nc(-c4cccnc4C(F)(F)F)ccc3n2)cc1C(=O)NC(C)(C)C` [Example 483, N-tert-butyl-2-methyl-5-(6-(2-(trifluoromethyl)pyridin-3-yl)imidazo[1,2-b]pyridazin-2-yl)benzamide], the IC50 was 300 to 3000 nM in test [1] (setting [3]); 72 nM in test [1] (setting [4]); < 300 nM in test [1] (setting [5]); < 300 nM in test [2] (setting [6]); 114 nM in test [2] (setting [7]).

Take `CCOC(=O)C=Cc1cccc(C(=O)Nc2ccc3nc(-c4ccc(C)c(NC(=O)C(C)(C)C)c4)cn3n2)c1` [compound 602]: the IC50 in test [1] (setting [4]) came to 155 nM; in test [2] (setting [7]), 314 nM.

Take `CC(C)(C)C(=O)Nc1cc(-c2cn3nc(-c4c(F)cccc4F)ccc3n2)ccc1C(F)(F)F` [Example 184, N-(5-(6-(2,6-difluorophenyl)imidazo[1,2-b]pyridazin-2-yl)-2-(trifluoromethyl)phenyl)pivalamide]: the IC50 in test [1] (setting [4]) worked out at 191 nM; in test [2] (setting [7]), 61 nM.

With `CC(C)(C)C(=O)Nc1cc(-c2cn3nc(-c4nccs4)ccc3n2)ccc1C(F)(F)F` [Example 148, N-(5-(6-(thiazol-2-yl)imidazo[1,2-b]pyridazin-2-yl)-2-(trifluoromethyl)phenyl)pivalamide], the IC50 in test [1] (setting [3]) is 300 to 3000 nM; in test [1] (setting [4]), 608 nM; in test [1] (setting [5]) it was 300 to 3000 nM; in test [2] (setting [6]) it was 300 to 3000 nM; in test [2] (setting [7]), 1940 nM.

Regarding `Cc1ccc(-c2cn3nc(-c4cccnc4C(F)(F)F)ccc3n2)cc1NC(=O)CCCCCCC(=O)NOC1CCCCO1` (centres unmarked) [compound 557, N1-(2-methyl-5-(6-(2-(trifluoromethyl)pyridin-3-yl)imidazo[1,2-b]pyridazin-2-yl)phenyl)-N8-((tetrahydro-2H-pyran-2-yl)oxy)octanediamide], the IC50 in test [1] (setting [4]) is 140 nM; in test [2] (setting [7]), 1080 nM.

Consider `Cc1ccc(-c2cn3nc(-c4cccnc4C)ccc3n2)cc1NC(=O)C(C)(C)C` [Example 278, N-(2-methyl-5-(6-(2-methylpyridin-3-yl)imidazo[1,2-b]pyridazin-2-yl)phenyl)pivalamide], for which the IC50 was 162 nM in test [1] (setting [4]) and 228 nM in test [2] (setting [7]).

With `O=C(CC(F)(F)F)Nc1cc(-c2cn3nc(-c4cccnc4C(F)(F)F)ccc3n2)ccc1Cl` [Example 675, N-(2-chloro-5-(6-(2-(trifluoromethyl)pyridin-3-yl)imidazo[1,2-b]pyridazin-2-yl)phenyl)-3,3,3-trifluoropropanamide], the IC50 in test [1] (setting [4]) worked out at 99 nM; in test [2] (setting [7]), 777 nM.

As to `CC(C)(C)C(=O)Nc1cc(-c2cn3nc(N4CCC(O)CC4)ccc3n2)ccc1C1CC1` [Example 273, N-(2-cyclopropyl-5-(6-(4-hydroxypiperidin-1-yl)imidazo[1,2-b]pyridazin-2-yl)phenyl)pivalamide], the IC50 in test [1] (setting [3]) was 3000 to 30000 nM; in test [1] (setting [5]), 3000 to 30000 nM; in test [2] (setting [6]), 300 to 3000 nM; in test [2] (setting [7]) it was 442 nM.

For `Cc1ccc(-c2nc3ccc(-c4ccccc4F)nn3c2C)cc1NC(=O)C(C)(C)C` [Example 312, N-(5-(6-(2-fluorophenyl)-3-methylimidazo[1,2-b]pyridazin-2-yl)-2-methylphenyl)pivalamide], the IC50 in test [1] (setting [4]) was 213 nM; in test [2] (setting [7]), 326 nM.

In the case of `COCCNC1CCN(c2ccc3nc(-c4ccc(C(F)(F)F)c(NC(=O)C(C)(C)C)c4)cn3n2)CC1` [Example 368, N-(5-(6-(4-(2-methoxyethylamino)piperidin-1-yl)imidazo[1,2-b]pyridazin-2-yl)-2-(trifluoromethyl)phenyl)pivalamide], the IC50 was 118 nM in test [1] (setting [4]) and 321 nM in test [2] (setting [7]).

With `CC(=O)c1ccc(F)c(-c2ccc3nc(-c4ccc(C)c(NC(=O)C(C)(C)C)c4)cn3n2)c1` [compound 529], the IC50 in test [1] (setting [3]) was 300 to 3000 nM; in test [1] (setting [4]), 197 nM; in test [1] (setting [5]) it was < 300 nM; in test [2] (setting [6]) it was < 300 nM; in test [2] (setting [7]), 116 nM.

`Cc1ccccc1CN1CCN(c2ccc3nc(-c4ccccc4)c(C)n3n2)CC1` [Example 163, 3-methyl-6-(4-(2-methylbenzyl)piperazin-1-yl)-2-phenylimidazo[1,2-b]pyridazine]: the IC50 was 1060 nM in test [1] (setting [4]) and 1050 nM in test [2] (setting [7]).

Regarding `CCc1ccc(-c2cn3nc(-c4cccnc4C(F)(F)F)ccc3n2)cc1NC(=O)C1(C)COC1` [Example 696, N-(2-ethyl-5-(6-(2-(trifluoromethyl)pyridin-3-yl)imidazo[1,2-b]pyridazin-2-yl)phenyl)-3-methyloxetane-3-carboxamide], the figures for the IC50 in test [1] (setting [4]) and in test [2] (setting [7]) were 254 nM and 229 nM, respectively.

Turning to `CC(C)(C)C(=O)Nc1cc(-c2cn3nc(-c4ccccc4F)ccc3n2)ccc1C(F)(F)F` [Example 171, N-(5-(6-(2-fluorophenyl)imidazo[1,2-b]pyridazin-2-yl)-2-(trifluoromethyl)phenyl)pivalamide], the IC50 was found to be 41 nM in test [1] (setting [4]) and 221 nM in test [2] (setting [7]).

For `CC(C)(C)C(=O)Nc1cc(-c2cn3nc(NC4CCCC4)ccc3n2)ccc1C(F)(F)F` [Example 301, N-(5-(6-(cyclopentylamino)imidazo[1,2-b]pyridazin-2-yl)-2-(trifluoromethyl)phenyl)pivalamide], the IC50 came out at 406 nM in test [1] (setting [4]) and 1060 nM in test [2] (setting [7]).

Consider `CC(C)(C)C(=O)Nc1cc(-c2cn3nc(-c4cncnc4)ccc3n2)ccc1C(F)(F)F` [Example 372, N-(5-(6-(pyrimidin-5-yl)imidazo[1,2-b]pyridazin-2-yl)-2-(trifluoromethyl)phenyl)pivalamide], for which the IC50 in test [1] (setting [4]) was found to be 827 nM; in test [2] (setting [7]), 633 nM.

With `CCOc1ccc2nc(-c3ccc(C(F)(F)F)c(C(=O)NC(C)(C)C)c3)cn2n1` [Example 211, N-tert-butyl-5-(6-ethoxyimidazo[2,1-f]pyridazin-2-yl)-2-(trifluoromethyl)benzamide], the figures for the IC50 in test [1] (setting [4]) and in test [2] (setting [7]) were 1020 nM and 6960 nM, respectively.

Consider `C#Cc1ccc(-c2cn3nc(-c4ccccc4F)ccc3n2)cc1NC(=O)C(C)(C)C` [Example 321, N-(2-ethynyl-5-(6-(2-fluorophenyl)imidazo[1,2-b]pyridazin-2-yl)phenyl)pivalamide], for which the IC50 in test [1] (setting [3]) is 300 to 3000 nM; in test [1] (setting [4]) it was 323 nM; in test [1] (setting [5]) it was < 300 nM; in test [2] (setting [6]) it was 300 to 3000 nM.

With `O=C(Nc1cc(-c2cn3nc(-c4cccnc4C(F)(F)F)ccc3n2)ccc1Cl)C1CCCCC1` [Example 670, N-(2-chloro-5-(6-(2-(trifluoromethyl)pyridin-3-yl)imidazo[1,2-b]pyridazin-2-yl)phenyl)cyclohexanecarboxamide], the IC50 in test [1] (setting [4]) was 61 nM; in test [2] (setting [7]), 620 nM.

On to `Fc1ccc(CN2CCN(c3ccc4nc(-c5ccc(F)cc5)c(C5CC5)n4n3)CC2)cc1` [Example 167, 3-cyclopropyl-6-(4-(4-fluorobenzyl)piperazin-1-yl)-2-(4-fluorophenyl)imidazo[1,2-b]pyridazine], for which the results for the IC50 in test [1] (setting [4]) and in test [2] (setting [7]) were 2270 nM and > 10000 nM, respectively.

Turning to `CC(C)(C)C(=O)Nc1cc(-c2cn3nc(-c4cccnc4C(F)(F)F)ccc3n2)ccc1Cl` [Example 642, N-(2-chloro-5-(6-(2-(trifluoromethyl)pyridin-3-yl)imidazo[1,2-b]pyridazin-2-yl)phenyl)pivalamide], the IC50 in test [1] (setting [3]) is < 300 nM; in test [1] (setting [4]) it was 13 nM; in test [1] (setting [5]) it was < 300 nM; in test [2] (setting [6]) it was < 300 nM; in test [2] (setting [7]), 6 nM.

For `Cc1ccc(-c2cn3nc(-c4ccc(OCCCCCCC(=O)NO)cc4C(F)(F)F)ccc3n2)cc1NC(=O)C(C)(C)C` [Example 417, N-hydroxy-7-(4-(2-(4-methyl-3-pivalamidophenyl)imidazo[1,2-b]pyridazin-6-yl)-3-(trifluoromethyl)phenoxy)heptanamide], the IC50 in test [1] (setting [3]) was 300 to 3000 nM; in test [1] (setting [4]) it was 380 nM; in test [1] (setting [5]), 300 to 3000 nM; in test [2] (setting [6]), 3000 to 30000 nM.

As for `CCc1ccc(-c2cn3nc(-c4cccnc4C(F)(F)F)ccc3n2)cc1NC(=O)C(C)(C)C` [Example 352, N-(2-ethyl-5-(6-(2-(trifluoromethyl)pyridin-3-yl)imidazo[1,2-b]pyridazin-2-yl)phenyl)pivalamide], the IC50 in test [1] (setting [3]) is < 300 nM; in test [1] (setting [4]), 11 nM; in test [1] (setting [5]), < 300 nM; in test [2] (setting [6]) it was < 300 nM; in test [2] (setting [7]), 14 nM.

As for `CCOC(=O)Nc1cc(-c2cn3nc(-c4cccnc4C(F)(F)F)ccc3n2)ccc1Cl` [Example 673, ethyl 2-chloro-5-(6-(2-(trifluoromethyl)pyridin-3-yl)imidazo[1,2-b]pyridazin-2-yl)phenylcarbamate], the figures for the IC50 in test [1] (setting [4]) and in test [2] (setting [7]) were 169 nM and 678 nM, respectively.

Take `COc1ccc2nc(-c3ccc(C)c(NC(=O)Cc4ccc(Cl)cc4)c3)cn2n1` [Example 101, 2-(4-chlorophenyl)-N-(5-(6-methoxyimidazo[1,2-b]pyridazin-2-yl)-2-methylphenyl)acetamide]: the IC50 is 3000 to 30000 nM in test [1] (setting [3]); 890 nM in test [1] (setting [4]); 300 to 3000 nM in test [1] (setting [5]); 3000 to 30000 nM in test [2] (setting [6]); 7010 nM in test [2] (setting [7]).
